Test results: paper PMC8026479 (Cancer Chemotherapy and Pharmacology, 2021)
Like-named read-outs stand apart in the source and are kept apart here.

Test: Study G1T28-03 Part 1 plasma PK (with topotecan)
Assay type: in vivo, human
Conditions: for Cmax / T1/2 / AUC(0-inf) / clearance / Vd / half-life: geometric mean; for Vd: read-out: Vz; for Tmax: range
Text: G1T28-03 (NCT02514447) was a multicentre Phase Ib/IIa study in patients with previously treated ES-SCLC [14]. […] Part 1 was a Phase Ib, open-label, dose-finding portion. Part 2 was a Phase IIa, randomized, double-blind, placebo-controlled portion. […] In Part 1 of the study, blood samples for PK analysis were collected at prespecified time points on Cycle 1 Day 1 and Cycle 1 Day 4 for all patients.

[1] = ES-SCLC + topotecan, 280 mg/m2, Cycle 1 Day 1 (n = 7)
[2] = human, plasma, 200 mg/m2, ES-SCLC + topotecan, 200 mg/m2, Cycle 1 Day 4 (n = 9)
[3] = human, plasma, 280 mg/m2, ES-SCLC + topotecan, 280 mg/m2, Cycle 1 Day 1 (n = 7)
[4] = human, plasma, 280 mg/m2, ES-SCLC + topotecan, 280 mg/m2, Cycle 1 Day 4 (n = 7)
[5] = human, plasma, ES-SCLC + topotecan, 200 mg/m2, Cycle 1 Day 1 (n = 10)
[6] = human, plasma, ES-SCLC + topotecan, 240 mg/m2, Cycle 1 Day 1 (n = 14)
[7] = human, plasma, ES-SCLC + topotecan, 240 mg/m2, Cycle 1 Day 4 (n = 15)

With `CN1CCN(c2ccc(Nc3ncc4cc5n(c4n3)C3(CCCCC3)CNC5=O)nc2)CC1` [trilaciclib] the Cmax (ES-SCLC + topotecan, 200 mg/m2, Cycle 1 Day 4 (n = 9)) was 1060 ng/mL, the T1/2 (ES-SCLC + topotecan, 240 mg/m2, Cycle 1 Day 1 (n = 14)) was 407 min and the Cmax [1] was 1110 ng/mL. The T1/2 [1] was 443 min, the “accumulation on repeated daily dosing” value (G1T28-03 Part 1, 280 mg/m2, Day 1 vs Day 4, not observed at lower dose levels) was “resulted in drug accumulation” and the AUC(0-inf) (human, plasma, 200 mg/m2, ES-SCLC + topotecan, 200 mg/m2, Cycle 1 Day 1 (n = 10), read-out: AUC0-inf) was 2410 ng·h/mL. It also gave a clearance [2] of 2850 mL/min, a Vd [2] of 2120 L and a Tmax [2] of 22.8 to 34.8 min. For the same compound, the AUC(0-inf) (human, plasma, 240 mg/m2, ES-SCLC + topotecan, 240 mg/m2, Cycle 1 Day 1 (n = 14), read-out: AUC0-inf) was 2910 ng·h/mL, the Tmax (human, plasma, 240 mg/m2, ES-SCLC + topotecan, 240 mg/m2, Cycle 1 Day 1 (n = 14)) was 24 to 42 min and the AUC(0-inf) (human, plasma, 240 mg/m2, ES-SCLC + topotecan, 240 mg/m2, Cycle 1 Day 4 (n = 15), read-out: AUCtau (AUC0-inf, footnote a)) was 2880 ng·h/mL. For the same compound, the Vd (human, plasma, 240 mg/m2, ES-SCLC + topotecan, 240 mg/m2, Cycle 1 Day 4 (n = 15)) was 1730 L, the clearance [3] was 2680 mL/min and the AUC(0-inf) (human, plasma, 280 mg/m2, ES-SCLC + topotecan, 280 mg/m2, Cycle 1 Day 1 (n = 7), read-out: AUC0-inf) was 3490 ng·h/mL. The Vd [3] was 1720 L, the Tmax [3] was 25.2 to 37.2 min and the clearance [4] was 2080 mL/min. The AUC(0-inf) (human, plasma, 280 mg/m2, ES-SCLC + topotecan, 280 mg/m2, Cycle 1 Day 4 (n = 7), read-out: AUCtau (AUC0-inf, footnote a)) was 4520 ng·h/mL, the Vd [4] was 1530 L and the Tmax [4] was 25.2 to 33 min. The clearance [5] was 2750 mL/min, the half-life [5] was 415 min and the Vd [5] was 1650 L. It also gave a Tmax [5] of 25.2 to 40.2 min, a clearance [6] of 2420 mL/min and a Cmax (human, plasma, ES-SCLC + topotecan, 240 mg/m2, Cycle 1 Day 1 (n = 14), read-out: Cmax) of 1270 ng/mL. The Vd [6] was 1430 L, the Tmax [7] was 22.8 to 90 min and the half-life (human, plasma, ES-SCLC + topotecan, 200 mg/m2, Cycle 1 Day 4 (n = 9)) was 514 min. For the same compound, the clearance [7] was 2470 mL/min, the Cmax (human, plasma, ES-SCLC + topotecan, 240 mg/m2, Cycle 1 Day 4 (n = 15), read-out: Cmax) was 1220 ng/mL and the half-life (human, plasma, ES-SCLC + topotecan, 280 mg/m2, Cycle 1 Day 4 (n = 7)) was 512 min. It also gave a Cmax (human, plasma, ES-SCLC + topotecan, 280 mg/m2, Cycle 1 Day 4 (n = 7), read-out: Cmax) of 2220 ng/mL.
